Measured values reported in patent US8226976B2, “Method of using cell-free protein synthesis to produce a membrane protein” (Riken, priority 2007, dated 2012).

Tests used:
[1] = in water; cited from earlier work
[2] = system: cell-free protein synthesis system (S30 extract); test: cell-free synthesis of BR by the dialysis method with the cholate concentration kept constant; format: biochemical, E. coli; conditions: 1% sodium cholate added to internal and external dialysis solutions; FIG. 2, Lanes 3, 4
Method: A protein synthesis reaction was performed as follows: an internal solution of the composition as shown in table 1 as mentioned below was supplied with 100 μM all-trans retinal at final concentration (Sigma), 9 μg of synthetic plasmid as necessary, a predetermined concentration of a detergent, and 6 mg of egg yolk phosphatidylcholine (Type XVI-E, Sigma) to prepare a reaction solution, 0.9 ml of which was poured into a dialysis membrane (Spectra/Por 7, Molecular Weight Cut Off: 15000, Spectrum). The synthesis reaction was performed at 30° C. for 6 h during dialysis which was to 10 times volume of external solution (9 mL) in a 15 mL conical tube by rotary shaking with a rotary shaker (RT-50, TAITEC). […]
After termination of the synthesis reaction, the reaction internal solution was centrifuged at 15000 rpm for 10 min. […] Scatter correction was performed by subjecting the determined scores from 680 nm to 750 nm to linear regression to subtract from the measured spectrums. The amount of an active BR was calculated from the score of the spectrum of 560 nm as subjected to the scatter correction using the molar absorption coefficient: 42000 and the molecular weight: 31.4 k. […]

Structure (SMILES)	critical micelle concentration (cmc) [1]	synthesis of BR (effect of inhibiting protein synthesis) [2]
C[C@H](CCC(=O)NCCC[N+](C)(C)CCCS(=O)(=O)[O-])[C@H]1CC[C@H]2[C@@H]3[C@H](O)C[C@@H]4C[C@H](O)CC[C@]4(C)[C@H]3C[C@H](O)[C@]12C [CHAPS, 3-[(3-cholamidepropyl)dimethylammonio]-1-propanesulfonate]	0.49 % (w/v)	–
C[C@@H]1CC[C@@]2(OC1)O[C@H]1[C@@H](O)[C@H]3[C@@H]4CC[C@H]5C[C@@H](O[C@@H]6O[C@H](CO)[C@H](O[C@@H]7O[C@H](CO)[C@@H](O)[C@H](O[C@@H]8OC[C@@H](O)[C@H](O)[C@H]8O)[C@H]7O[C@@H]7O[C@H](CO)[C@H](O)[C@H](O[C@@H]8O[C@H](CO)[C@@H](O)[C@H](O)[C@H]8O)[C@H]7O)[C@H](O)[C@H]6O)[C@H](O)C[C@]5(C)[C@H]4CC[C@]3(C)[C@H]1[C@@H]2C [digitonin]	0.06 % (w/v)	–
C[C@H](CCC(=O)[O-])[C@H]1CC[C@H]2[C@@H]3[C@H](O)C[C@@H]4C[C@H](O)CC[C@]4(C)[C@H]3C[C@H](O)[C@]12C.[Na+] [sodium cholate]	0.41 % (w/v)	synthesis of BR was not found
